Columns and labels:
[1] = target: Rho kinase 1 (ROCK-I) (Homo sapiens, UniProt Q13464); assay: In vitro Rho kinase inhibitory activity assay (ADP-Glo), Rho kinase 1; type: biochemical; settings: 10 μM ATP, 25° C., expressed as range of activity
Summary of the method: (§1)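 Each kinase (ROCK1 or ROCK2) sat with compound for 30 min at 25 °C before 10 μM ATP started a 1 h reaction on 2.5 μM myelin basic protein (Tris pH 7.5, MgCl2, BSA, DTT, 1% DMSO). ADP formed was read by ADP-Glo luminescence. Dose-response IC50s were converted to Ki by Cheng-Prusoff.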

[2] = target: Rho kinase 2 (ROCK-II) (Homo sapiens, UniProt O75116); assay: In vitro Rho kinase inhibitory activity assay (ADP-Glo), Rho kinase 2; type: biochemical; settings: 10 μM ATP, 25° C., expressed as range of activity
Sequence of Rho kinase 2 (ROCK-II) (O75116 whole entry): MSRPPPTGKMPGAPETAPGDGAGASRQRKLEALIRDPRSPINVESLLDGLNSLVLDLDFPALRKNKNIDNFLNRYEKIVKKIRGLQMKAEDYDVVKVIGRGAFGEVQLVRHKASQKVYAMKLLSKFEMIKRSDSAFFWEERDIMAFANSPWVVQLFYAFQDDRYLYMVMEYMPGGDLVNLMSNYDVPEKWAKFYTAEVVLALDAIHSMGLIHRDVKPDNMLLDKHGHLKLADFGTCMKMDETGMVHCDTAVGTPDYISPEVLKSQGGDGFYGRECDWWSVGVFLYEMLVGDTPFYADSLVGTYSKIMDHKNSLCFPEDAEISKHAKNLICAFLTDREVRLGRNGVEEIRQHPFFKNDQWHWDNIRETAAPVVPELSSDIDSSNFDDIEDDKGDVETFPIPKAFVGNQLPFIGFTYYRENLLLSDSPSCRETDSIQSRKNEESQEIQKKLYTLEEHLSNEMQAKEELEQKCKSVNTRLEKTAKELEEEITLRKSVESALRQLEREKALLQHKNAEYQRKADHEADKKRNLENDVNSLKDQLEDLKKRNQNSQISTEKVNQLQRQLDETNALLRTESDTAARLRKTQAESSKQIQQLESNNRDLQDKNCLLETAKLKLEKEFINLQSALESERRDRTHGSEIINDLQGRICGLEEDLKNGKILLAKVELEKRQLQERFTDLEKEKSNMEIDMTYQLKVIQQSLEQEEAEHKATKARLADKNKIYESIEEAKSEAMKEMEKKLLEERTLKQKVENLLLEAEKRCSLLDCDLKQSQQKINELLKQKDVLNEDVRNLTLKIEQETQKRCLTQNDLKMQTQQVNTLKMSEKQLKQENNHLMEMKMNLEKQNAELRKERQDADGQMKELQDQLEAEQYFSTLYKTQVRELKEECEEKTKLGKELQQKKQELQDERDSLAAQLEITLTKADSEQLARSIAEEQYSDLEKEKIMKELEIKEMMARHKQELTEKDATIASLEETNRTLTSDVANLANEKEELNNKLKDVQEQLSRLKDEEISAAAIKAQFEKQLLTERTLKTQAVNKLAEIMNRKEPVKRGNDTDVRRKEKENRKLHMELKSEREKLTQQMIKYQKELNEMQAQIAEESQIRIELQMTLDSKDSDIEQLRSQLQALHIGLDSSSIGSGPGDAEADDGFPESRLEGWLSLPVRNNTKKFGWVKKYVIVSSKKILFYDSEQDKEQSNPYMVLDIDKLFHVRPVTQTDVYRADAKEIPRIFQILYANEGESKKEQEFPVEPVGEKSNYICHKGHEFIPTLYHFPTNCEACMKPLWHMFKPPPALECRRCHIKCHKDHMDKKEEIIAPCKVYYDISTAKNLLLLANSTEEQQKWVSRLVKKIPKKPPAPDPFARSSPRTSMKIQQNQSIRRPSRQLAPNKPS
Summary of the method: as §1

Sequence of Rho kinase 1 (ROCK-I) (Q13464 whole entry): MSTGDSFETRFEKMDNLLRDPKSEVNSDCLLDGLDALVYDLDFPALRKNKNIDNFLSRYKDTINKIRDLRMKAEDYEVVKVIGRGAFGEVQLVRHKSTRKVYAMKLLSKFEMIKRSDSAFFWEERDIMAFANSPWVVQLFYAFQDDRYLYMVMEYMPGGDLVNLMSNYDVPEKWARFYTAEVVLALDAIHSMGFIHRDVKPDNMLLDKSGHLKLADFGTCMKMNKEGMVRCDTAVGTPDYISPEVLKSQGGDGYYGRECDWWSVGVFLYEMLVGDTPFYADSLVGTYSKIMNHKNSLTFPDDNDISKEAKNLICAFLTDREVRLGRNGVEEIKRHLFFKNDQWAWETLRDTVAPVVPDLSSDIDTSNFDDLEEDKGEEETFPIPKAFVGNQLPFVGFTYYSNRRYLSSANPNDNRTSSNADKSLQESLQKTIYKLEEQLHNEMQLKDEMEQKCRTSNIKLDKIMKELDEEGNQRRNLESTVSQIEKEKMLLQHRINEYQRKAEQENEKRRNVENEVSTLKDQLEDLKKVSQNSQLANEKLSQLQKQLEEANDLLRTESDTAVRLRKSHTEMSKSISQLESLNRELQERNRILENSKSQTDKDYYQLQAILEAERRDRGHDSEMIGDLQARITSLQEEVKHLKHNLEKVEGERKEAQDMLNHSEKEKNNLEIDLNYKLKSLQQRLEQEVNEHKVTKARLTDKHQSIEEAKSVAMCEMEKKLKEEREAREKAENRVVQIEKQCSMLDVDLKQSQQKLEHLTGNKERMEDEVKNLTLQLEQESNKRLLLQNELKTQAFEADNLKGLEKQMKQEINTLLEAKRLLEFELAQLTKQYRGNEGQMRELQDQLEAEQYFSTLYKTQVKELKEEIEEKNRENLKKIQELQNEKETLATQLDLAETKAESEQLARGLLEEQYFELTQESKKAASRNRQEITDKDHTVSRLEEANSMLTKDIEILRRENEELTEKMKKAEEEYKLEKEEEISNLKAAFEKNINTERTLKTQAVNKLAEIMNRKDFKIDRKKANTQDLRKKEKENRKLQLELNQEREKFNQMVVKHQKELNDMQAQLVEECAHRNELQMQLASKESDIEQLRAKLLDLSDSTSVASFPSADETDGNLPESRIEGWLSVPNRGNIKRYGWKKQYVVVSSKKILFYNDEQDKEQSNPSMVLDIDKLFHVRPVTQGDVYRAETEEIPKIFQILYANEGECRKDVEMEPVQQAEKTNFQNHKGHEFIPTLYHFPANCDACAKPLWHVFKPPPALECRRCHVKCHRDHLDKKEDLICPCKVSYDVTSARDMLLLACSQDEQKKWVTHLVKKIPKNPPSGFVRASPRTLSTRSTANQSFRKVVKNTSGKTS

Row | SMILES | Ki [1] [nM] | Ki [2] [nM]
1 | Cc1c[nH]c2nccc(Oc3ccc(C[C@H](N)C(=O)N4CCN(Cc5ccnnc5)CC4)cc3F)c12 [Example 153, (S)-2-amino-3-(3-fluoro-4-((3-methyl-1H-pyrrolo[2,3-b]pyridin-4-yl)oxy)phenyl)-1-(4-(pyridazin-4-ylmethyl)piperazin-1-yl)propan-1-one] | < 3 | < 3
2 | Cc1c[nH]c2nccc(Oc3ccc(C[C@H](N)C(=O)NCCc4cnn(-c5ccccc5)c4)cc3F)c12 [Example 56, (S)-2-amino-3-(3-fluoro-4-((3-methyl-1H-pyrrolo[2,3-b]pyridin-4-yl)oxy)phenyl)-N-(2-(1-phenyl-1H-pyrazol-4-yl)ethyl)propanamide] | < 3 | < 3
3 | Cc1c[nH]c2nccc(Oc3ccc(C[C@H](N)C(=O)NCC4CN(C)C4)cc3F)c12 [Example 47, (S)-2-amino-3-(3-fluoro-4-((3-methyl-1H-pyrrolo[2,3-b]pyridin-4-yl)oxy)phenyl)-N-((1-methylazetidin-3-yl)methyl)propanamide] | < 3 | < 3
4 | Cc1c[nH]c2nccc(Oc3ccc(C[C@H](N)C(=O)N4CCC(Oc5cccnc5)CC4)cc3F)c12 [Example 11, (S)-2-amino-3-(3-fluoro-4-((3-methyl-1H-pyrrolo[2,3-b]pyridin-4-yl)oxy)phenyl)-1-(4-(pyridin-3-yloxy)piperidin-1-yl)propan-1-one] | < 3 | < 3
5 | Cc1c[nH]c2nccc(Oc3ccc(C[C@@H](N)C(=O)NC4CCOCC4)cc3F)c12 [Example 55, (R)-2-amino-3-(3-fluoro-4-((3-methyl-1H-pyrrolo[2,3-b]pyridin-4-yl)oxy)phenyl)-N-(tetrahydro-2H-pyran-4-yl)propanamide] | 3 to 30 | 3 to 30
6 | Cc1nc(CN2CCN(C(=O)[C@@H](N)Cc3ccc(Oc4ccnc5[nH]cc(C)c45)c(F)c3)CC2)cs1 [Example 157, (S)-2-amino-3-(3-fluoro-4-((3-methyl-1H-pyrrolo[2,3-b]pyridin-4-yl)oxy)phenyl)-1-(4-((2-methylthiazol-4-yl)methyl)piperazin-1-yl)propan-1-one] | < 3 | < 3
7 | N[C@@H](Cc1ccc(Oc2ccnc3[nH]cc(Cl)c23)cc1)C(=O)NC1CCCCC1 [Example 191, (S)-2-amino-3-(4-((3-chloro-1H-pyrrolo[2,3-b]pyridin-4-yl)oxy)phenyl)-N-cyclohexylpropanamide] | < 3 | < 3
8 | Cc1c[nH]c2ncnc(Oc3ccc(C[C@H](N)C(=O)N4CCC(c5ccncc5)CC4)cc3F)c12 [Example 122, (S)-2-amino-3-(3-fluoro-4-((5-methyl-7H-pyrrolo[2,3-d]pyrimidin-4-yl)oxy)phenyl)-1-(4-(pyridin-4-yl)piperidin-1-yl)propan-1-one] | 3 to 30 | < 3
9 | Cc1c[nH]c2ncnc(Oc3ccc(C[C@H](N)C(=O)N4CCc5ccccc5C4)cc3F)c12 [Example 124, (S)-2-amino-1-(3,4-dihydroisoquinolin-2(1H)-yl)-3-(3-fluoro-4-((5-methyl-7H-pyrrolo[2,3-d]pyrimidin-4-yl)oxy)phenyl)propan-1-one] | < 3 | < 3
10 | COCCN1CCN(C(=O)C(N)Cc2ccc(Oc3ccnc4[nH]cc(C)c34)c(F)c2)CC1 (stereo not drawn) [Example 19, 2-amino-3-(3-fluoro-4-((3-methyl-1H-pyrrolo[2,3-b]pyridin-4-yl)oxy)phenyl)-1-(4-(2-methoxyethyl)piperazin-1-yl)propan-1-one] | < 3 | < 3
11 | N#Cc1c[nH]c2nccc(Oc3ccc(C[C@H](N)C(=O)NC4CCCCC4)cc3)c12 [Example 219, (S)-2-amino-3-(4-((3-cyano-1H-pyrrolo[2,3-b]pyridin-4-yl)oxy)phenyl)-N-cyclohexylpropanamide] | < 3 | < 3
12 | Cc1c[nH]c2nccc(Oc3ccc(C[C@H](N)C(=O)N4CCc5ncncc5C4)cc3F)c12 [Example 2, (S)-2-amino-1-(7,8-dihydropyrido[4,3-d]pyrimidin-6(5H)-yl)-3-(3-fluoro-4-((3-methyl-1H-pyrrolo[2,3-b]pyridin-4-yl)oxy)phenyl)propan-1-one] | < 3 | < 3
13 | CN1CCC(NC(=O)[C@@H](N)Cc2ccc(Oc3ccnc4[nH]cc(C#N)c34)c(F)c2)CC1 [Example 222, (S)-2-amino-3-(4-((3-cyano-1H-pyrrolo[2,3-b]pyridin-4-yl)oxy)-3-fluorophenyl)-N-(1-methylpiperidin-4-yl)propanamide] | < 3 | < 3
14 | Cc1c[nH]c2nccc(Oc3ccc(C[C@H](N)C(=O)N4CCN(C(=O)Cc5ccccc5)CC4)cc3F)c12 [Example 169, (S)-2-amino-3-(3-fluoro-4-((3-methyl-1H-pyrrolo[2,3-b]pyridin-4-yl)oxy)phenyl)-1-(4-(2-phenylacetyl-)piperazin-1-yl)propan-1-one] | < 3 | < 3
15 | CC(N)(Cc1ccc(Oc2ccnc3[nH]ccc23)cc1)C(=O)NC1CCCCC1 (stereo not drawn) [Example 150, 3-(4-((1H-pyrrolo[2,3-b]pyridin-4-yl)oxy)phenyl)-2-amino-N-cyclohexyl-2-methylpropanamide] | 3 to 30 | 3 to 30
16 | N[C@@H](Cc1ccc(Oc2ccnc3[nH]cc(-c4cccnc4)c23)cc1)C(=O)N1CCN(Cc2ccccc2)CC1 [Example 194, (S)-2-amino-1-(4-benzylpiperazin-1-yl)-3-(4-((3-(pyridin-3-yl)-1H-pyrrolo[2,3-b]pyridin-4-yl)oxy)phenyl)propan-1-one] | < 3 | < 3
17 | Cc1c[nH]c2nccc(Oc3ccc(C[C@H](N)C(=O)NC4CN(C)C4)cc3F)c12 [Example 42, (S)-2-amino-3-(3-fluoro-4-((3-methyl-1H-pyrrolo[2,3-b]pyridin-4-yl)oxy)phenyl)-N-(1-methylazetidin-3-yl)propanamide] | < 3 | < 3
18 | Cc1c[nH]c2nccc(Oc3ccc(CC(N)C(=O)NC4Cc5ccccc5C4)cc3F)c12 (stereo not drawn) [Example 63, 2-amino-N-(2,3-dihydro-1H-inden-2-yl)-3-(3-fluoro-4-((3-methyl-1H-pyrrolo[2,3-b]pyridin-4-yl)oxy)phenyl)propanamide] | < 3 | < 3
19 | Cc1c[nH]c2nccc(Oc3ccc(C[C@H](N)C(=O)N4CCN(C(=O)C5CCCCC5)CC4)cc3F)c12 [Example 168, (S)-2-amino-1-(4-(cyclohexanecarbonyl)piperazin-1-yl)-3-(3-fluoro-4-((3-methyl-1H-pyrrolo[2,3-b]pyridin-4-yl)oxy)phenyl)propan-1-one] | < 3 | < 3
20 | Cc1c[nH]c2nccc(Oc3ccc(C[C@H](N)C(=O)N4CCOC(c5ccccc5)C4)cc3F)c12 (mixture of isomers) [Example 4, (2S)-2-amino-3-(3-fluoro-4-((3-methyl-1H-pyrrolo[2,3-b]pyridin-4-yl)oxy)phenyl)-1-(2-phenylmorpholino)propan-1-one] | < 3 | < 3
21 | Cc1c[nH]c2nccc(Oc3ccc(CC(N)C(=O)N4CCN(CC5CC5)CC4)cc3F)c12 (stereo not drawn) [Example 58, 2-amino-1-(4-(cyclopropylmethyl)piperazin-1-yl)-3-(3-fluoro-4-((3-methyl-1H-pyrrolo[2,3-b]pyridin-4-yl)oxy)phenyl)propan-1-one] | < 3 | < 3

— US10501461B2, “Tyrosine amide derivatives as Rho-kinase inhibitors” (CHIESI FARMACEUTICI S.P.A., priority 2017, dated 2019)
